Experimental data reported in US10933033B2, “Composition for preventing or reducing nephrotoxicity and use thereof” (KOREA INSTITUTE OF SCIENCE AND TECHNOLOGY, priority 2018, dated 2021).

Tests used:
LLC-PK1 cells [1] = assay: Protective effect against cisplatin nephrotoxicity, cell viability (CCK-8); type: cell-based; settings: for effect on cell viability that had been reduced with cisplatin: 25 μM cisplatin, LLC-PK1, concentration-dependent; for viability at 5 µg/mL / viability at 10 µg/mL / viability at 25 µg/mL / viability at 50 µg/mL / viability at 100 µg/mL / viability at 10 µM: Sus scrofa, LLC-PK1
Protocol: First, LLC-PK1 cells were cultured in a Dulbecco's modified Eagle's medium (DMEM) (available from Cellgro, Manassas, Va., USA) in which 10% of fetal bovine serum (FBS), 100 units/mL of penicillin G, and 100 μg/mL of streptomycin were added, in an incubator (95% air and 5% CO2) maintained at about 37° C. The used FBS, penicillin G, and streptomycin were purchased from Gibco BRL Life Technologies Inc. The cultured LLC-PK1 cells were dispensed in a 96-well plate at a density of 1×10^4 cells in 100 μL of the same DMEM medium per each well and then stabilized for about 22 hours.
After 1 hour, absorbance at a detection wavelength of 450 nm was measured using a BIO-TEK microplate reader (available from Winooski, Vt., USA) to thereby measure cell viability.

LLC-PK1 cells [2] = assay: Image-based cell analysis of apoptosis (Annexin V / PI, Tali cytometer); settings: for Apoptosis (%): 2 h pre-incubation, then 25 μM cisplatin for 24 h, LLC-PK1
Protocol: The cultured LLC-PK1 cells in DMEM were dispensed in a 6-well plate at a density of 4×10^5 cells in 3 mL of the same DMEM medium per each well and then incubated under the same conditions for 24 hours to stabilize the cells.
After incubation under the same conditions for about 24 hours, the cells were collected using trypsin, washed once with phosphate-buffered saline (PBS), resuspended in 100 μL of annexin-binding buffer ([…], 140 mM NaCl, […], pH 7.4) to reach a cell number of about 5×10^5 to about 5×10^6 cells/mL, and then mixed with 5 μL of Annexin V Alexa Fluor 488 and left in the dark at room temperature for about 20 minutes to fix and stain the cells. The resulting cell suspension was centrifuged to discard the supernatant and collect precipitated cell pellets. The precipitated cell pellets were resuspended in 100 μL of annexin-binding buffer to obtain a resuspension.
Next, 1 μL of propidium iodide (PI) was added to the resuspension, mixed thoroughly, and then left in the dark at room temperature for about 1 minute to about 5 minutes to fix and stain the cells. The stained cells were analyzed using a Tali Image-based cytometer and TaliPCApp (version 1.0) software.
Cells were divided into live cells (annexin V-negative/PI-negative), early apoptotic cells (annexin V-positive/PI-negative), and late apoptotic or necrotic cells (annexin V-positive/PI-positive), and total apoptotic cells were expressed as a ratio of annexin V-positive cells to PI-negative or PI-positive cells.

Row | SMILES | effect on cell viability that had been reduced with cisplatin (LLC-PK1 cells [1]) | viability at 5 µg/mL (LLC-PK1 cells [1]) [%] | viability at 10 µg/mL (LLC-PK1 cells [1]) [%] | viability at 25 µg/mL (LLC-PK1 cells [1]) [%] | viability at 50 µg/mL (LLC-PK1 cells [1]) [%] | viability at 100 µg/mL (LLC-PK1 cells [1]) [%] | viability at 10 µM (LLC-PK1 cells [1]) [%] | apoptosis of the LLC-PK1 cells caused by cisplatin (LLC-PK1 cells [2]; 5 μM and 10 μM, 25 μM cisplatin) | Apoptosis (%) (LLC-PK1 cells [2]; 5 μM) | Apoptosis (%) (LLC-PK1 cells [2]; 10 μM)
1 | Oc1cccc2c(-c3ccc(O)c4c(O)cccc34)ccc(O)c12 [BNT, 1,1′-binaphthalene-4,4′,5,5′-tetrol] | significantly increase cell viability | 63.3 | 65.1 | 65.4 | 71.5 | 75.1 | – | – | – | –
2 | O=C1CC2C(=C3c4c2ccc(O)c4[C@@H](O)C[C@@H]3O)c2cccc(O)c21 (some centres unmarked) [Hypoxylonol C] | significantly increase cell viability | 76.9 | 86.6 | 89.3 | 89.5 | 92.5 | ≥ 85 | – | – | –
3 | O=C1CC2C(=C3c4c2ccc(O)c4[C@H](O)C[C@@H]3O)c2cccc(O)c21 (some centres unmarked) [Hypoxylonol F] | significantly increase cell viability | 86.4 | 90.9 | 92.2 | 92.3 | 94.4 | ≥ 90 | significantly reduced | 26.3 | 6.6
